Test results as given in the supplement of paper PMC10307832.

Legend:
Experiment in all cases: relative viability (nuclei count vs DMSO), 5 days (fraction); higher = more cells survive
NCI-H1355 = tested on: NCI-H1355
In short: (§1)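 Lung cancer cell lines, seeded in 1536-well plates, were treated the following day by pin tool with a single drug or with five library-drug doses (not always all listed) in √10 steps on top of a fixed anchor-drug dose. Cells were fixed and nuclei stained in one step after 5 days, and nuclei were counted. Relative viability is the nuclei count for treated wells divided by that for vehicle wells, reported as medians of duplicate plates.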

NCI-H1650 = tested on: NCI-H1650
In short: as §1

BEN = tested on: BEN
In short: as §1

CAL-12T = tested on: CAL-12T
In short: as §1

NCI-H1975 = tested on: NCI-H1975
In short: as §1

NCI-H2023 = tested on: NCI-H2023
In short: as §1

HCC-366 = tested on: HCC-366
In short: as §1

SK-LU-1 = tested on: SK-LU-1
In short: as §1

NCI-H1563 = tested on: NCI-H1563
In short: as §1

NCI-H1437 = tested on: NCI-H1437
In short: as §1

LU99A = tested on: LU99A
In short: as §1

NCI-H2085 = tested on: NCI-H2085
In short: as §1

NCI-H838 = tested on: NCI-H838
In short: as §1

COR-L23 = tested on: COR-L23
In short: as §1

NCI-H1651 = tested on: NCI-H1651
In short: as §1

NCI-H441 = tested on: NCI-H441
In short: as §1

NCI-H460 = tested on: NCI-H460
In short: as §1

NCI-H1734 = tested on: NCI-H1734
In short: as §1

LOU-NH91 = tested on: LOU-NH91
In short: as §1

**Q.** Which results are given for CC(=O)O[C@@]12CO[C@@H]1C[C@H](O)[C@@]1(C)C(=O)[C@H](O)C3=C(C)[C@@H](OC(=O)[C@H](O)[C@@H](NC(=O)OC(C)(C)C)c4ccccc4)C[C@@](O)([C@@H](OC(=O)c4ccccc4)[C@H]21)C3(C)C [Docetaxel] + CC(C)C[C@H](NC(=O)[C@H](Cc1ccccc1)NC(=O)c1cnccn1)B(O)O [Bortezomib] (partner 0.002 µM)?
**A.** relative viability (NCI-H1355; first compound 0.0002 µM): 1.2; relative viability (NCI-H1355; first compound 0.000632 µM): 1.14; relative viability (NCI-H1355; first compound 0.002 µM): 0.673; relative viability (NCI-H1355; first compound 0.006325 µM): 0.302; relative viability (NCI-H1355; first compound 0.02 µM): 0.224; relative viability (NCI-H1650; first compound 0.0002 µM): 0.2; relative viability (NCI-H1650; first compound 0.000632 µM): 0.196; relative viability (NCI-H1650; first compound 0.002 µM): 0.204; relative viability (NCI-H1650; first compound 0.006325 µM): 0.181; relative viability (NCI-H1650; first compound 0.02 µM): 0.201; relative viability (BEN; first compound 0.0002 µM): 0.612; relative viability (BEN; first compound 0.000632 µM): 0.644; relative viability (BEN; first compound 0.002 µM): 0.341; relative viability (BEN; first compound 0.006325 µM): 0.263; relative viability (BEN; first compound 0.02 µM): 0.164; relative viability (CAL-12T; first compound 0.0002 µM): 0.822; relative viability (CAL-12T; first compound 0.000632 µM): 0.404; relative viability (CAL-12T; first compound 0.002 µM): 0.348; relative viability (CAL-12T; first compound 0.006325 µM): 0.271; relative viability (CAL-12T; first compound 0.02 µM): 0.148; relative viability (NCI-H1975; first compound 0.0002 µM): 0.366; relative viability (NCI-H1975; first compound 0.000632 µM): 0.246; relative viability (NCI-H1975; first compound 0.002 µM): 0.166; relative viability (NCI-H1975; first compound 0.006325 µM): 0.15; relative viability (NCI-H1975; first compound 0.02 µM): 0.141; relative viability (NCI-H2023; first compound 0.0002 µM): 0.89; relative viability (NCI-H2023; first compound 0.000632 µM): 0.456; relative viability (NCI-H2023; first compound 0.002 µM): 0.134; relative viability (NCI-H2023; first compound 0.006325 µM): 0.101; relative viability (NCI-H2023; first compound 0.02 µM): 0.0677; relative viability (HCC-366; first compound 0.0002 µM): 1.07; relative viability (HCC-366; first compound 0.000632 µM): 0.267; relative viability (HCC-366; first compound 0.002 µM): 0.144; relative viability (HCC-366; first compound 0.006325 µM): 0.0171; relative viability (SK-LU-1; first compound 0.0002 µM): 0.951; relative viability (SK-LU-1; first compound 0.000632 µM): 0.392; relative viability (SK-LU-1; first compound 0.002 µM): 0.307; relative viability (SK-LU-1; first compound 0.006325 µM): 0.267; relative viability (SK-LU-1; first compound 0.02 µM): 0.208; relative viability (NCI-H1563; first compound 0.0002 µM): 0.912; relative viability (NCI-H1563; first compound 0.000632 µM): 1.02; relative viability (NCI-H1563; first compound 0.002 µM): 0.989; relative viability (NCI-H1563; first compound 0.006325 µM): 0.741; relative viability (NCI-H1563; first compound 0.02 µM): 0.582; relative viability (NCI-H1437; first compound 0.0002 µM): 0.472; relative viability (NCI-H1437; first compound 0.000632 µM): 0.322; relative viability (NCI-H1437; first compound 0.002 µM): 0.215; relative viability (NCI-H1437; first compound 0.006325 µM): 0.145; relative viability (NCI-H1437; first compound 0.02 µM): 0.104; relative viability (LU99A; first compound 0.0002 µM): 1.01; relative viability (LU99A; first compound 0.000632 µM): 0.637; relative viability (LU99A; first compound 0.002 µM): 0.545; relative viability (LU99A; first compound 0.006325 µM): 0.282; relative viability (LU99A; first compound 0.02 µM): 0.221; relative viability (NCI-H2085; first compound 0.0002 µM): 0.882; relative viability (NCI-H2085; first compound 0.000632 µM): 1.06; relative viability (NCI-H2085; first compound 0.002 µM): 0.718; relative viability (NCI-H2085; first compound 0.006325 µM): 0.54; relative viability (NCI-H2085; first compound 0.02 µM): 0.46; relative viability (NCI-H838; first compound 0.0002 µM): 0.795; relative viability (NCI-H838; first compound 0.000632 µM): 0.522; relative viability (NCI-H838; first compound 0.002 µM): 0.247; relative viability (NCI-H838; first compound 0.006325 µM): 0.154; relative viability (NCI-H838; first compound 0.02 µM): 0.0975; relative viability (COR-L23; first compound 0.0002 µM): 0.885; relative viability (COR-L23; first compound 0.000632 µM): 0.915; relative viability (COR-L23; first compound 0.002 µM): 0.844; relative viability (COR-L23; first compound 0.02 µM): 0.116; relative viability (NCI-H1651; first compound 0.0002 µM): 0.802; relative viability (NCI-H1651; first compound 0.000632 µM): 0.926; relative viability (NCI-H1651; first compound 0.002 µM): 0.744; relative viability (NCI-H1651; first compound 0.006325 µM): 0.22; relative viability (NCI-H1651; first compound 0.02 µM): 0.137; relative viability (NCI-H441; first compound 0.0002 µM): 0.449; relative viability (NCI-H441; first compound 0.000632 µM): 0.276; relative viability (NCI-H441; first compound 0.002 µM): 0.208; relative viability (NCI-H441; first compound 0.006325 µM): 0.188; relative viability (NCI-H441; first compound 0.02 µM): 0.179; relative viability (NCI-H460; first compound 0.0002 µM): 0.959; relative viability (NCI-H460; first compound 0.000632 µM): 0.735; relative viability (NCI-H460; first compound 0.002 µM): 0.0916; relative viability (NCI-H460; first compound 0.006325 µM): 0.0162; relative viability (NCI-H460; first compound 0.02 µM): 0.0121; relative viability (NCI-H1734; first compound 0.0002 µM): 0.865; relative viability (NCI-H1734; first compound 0.000632 µM): 0.577; relative viability (NCI-H1734; first compound 0.002 µM): 0.323; relative viability (NCI-H1734; first compound 0.006325 µM): 0.325; relative viability (NCI-H1734; first compound 0.02 µM): 0.222; relative viability (LOU-NH91; first compound 0.0002 µM): 0.483; relative viability (LOU-NH91; first compound 0.000632 µM): 0.46; relative viability (LOU-NH91; first compound 0.002 µM): 0.4; relative viability (LOU-NH91; first compound 0.006325 µM): 0.337; relative viability (LOU-NH91; first compound 0.02 µM): 0.345
